Measured values from patent publication US20260256762A1, “Aromatic Amide Derivative, And Preparation Method Therefor And Medical Use Thereof” (ZHEJIANG HISUN PHARMACEUTICAL CO., LTD., priority 2023, published 2026).

Assays:
[1] = Pharmacokinetic test in mice after gavage administration; type: in vivo; settings: ICR mice, male, Oral (10 mg/mL), plasma
Experimental: Control Compound AMG650, Compound 9;
ICR mice, male, 27.3-30.3 g, purchased from Charles River Experimental Animal Technology Co., Ltd.
A proper amount of pharmaceutical compound was weighed, a proper amount of DMA, CrEL and 5% GS were added in turn, then the system was mixed evenly by ultrasonic vortex to prepare a 1 mg/mL drug administration preparation, wherein DMA, CrEL and 5% GS=10:10:80 (v:v:v).
ICR mice, each compound injection group (9 mice in each group) to be determined, were fasted overnight, fed was given 4 hours after gavage administration (PO, the dosage of the compound was 10 mg/kg, the dosage volume was 10 mL/kg).
About 0.1 mL blood was collected from orbits 0.25 hours, 0.5 hours, 1 hour, 2 hours, 4 hours, 8 hours, 10 hours and 24 hours […] after drug administration, and a whole blood sample was placed in an anticoagulant tube including EDTA-K2. Blood samples were collected and then placed on ice, and plasma was separated by centrifugation (centrifugation condition: 1500 g, 10 minutes). The collected plasma was stored at −40° C. to −20° C. before analysis.
LC-MS/MS was used to determine the content of compounds to be tested in plasma of mice after gavage administration.

OVCAR-3 cells = assay: Inhibition of proliferation of OVCAR-3 cells (CellTiter-Glo); type: cell-based; settings: Homo sapiens, OVCAR-3 cells (TP53 R248Q mutation), 72 hours, read-out: IC50 inhibiting the proliferation of OVCAR-3 cells
Experimental: (§1) The following method was used to determine the effect of the compound of the present invention on the proliferation of OVCAR-3 cells. OVCAR-3 cells (comprising TP53 R248Q mutation) were purchased from the Cell Resource Center of Shanghai Institute of Life Sciences, Chinese Academy of Sciences, and cultured in a RPMI 1640 medium comprising10% fetal bovine serum, 100 U penicillin and 100 μg/mL streptomycin. Cell viability was determined by Cell Titer-Glo® Luminescent Cell Viability Assay Kit (Promega, article No. G7573).
(§2) An experimental method was carried out according to steps provided in the kit manual, with details as follows: firstly, a test compound was dissolved in DMSO to prepare a 10 mM storage solution, and then diluted with a culture medium to prepare a test sample. A final concentration of the compound ranged from 1000 nM to 0.015 nM. Cells in a logarithmic growth phase were inoculated into a 96-mesh cell culture plate at a density of 1000 cells per mesh, cultured overnight in a 5% CO2 incubator at 37° C., and then cultured for 72 hours after adding the test compound. After completion of cultivation, 50 uL CellTiter-Glo detection solution was added into each mesh, shook for 5 minutes, and stood for 10 minutes, and then a luminous value of each mesh of the sample was read by a microplate reader using Luminescence mode. Compared with the numerical value of a control group (0.3% DMSO), a percentage inhibition rate of the compound at each concentration point was calculated, and then an IC50 value of the compound inhibiting cell proliferation was obtained by a nonlinear regression analysis with a logarithmic-inhibition rate of the compound concentration in a GraphPad Prism 5 software, as shown in Table 1.

HT-29 cells = assay: Inhibition of proliferation of HT-29 cells (CellTiter-Glo); type: cell-based; settings: Homo sapiens, HT-29 cells (TP53 R273H mutation), 120 hours, read-out: IC50 inhibiting the proliferation of HT-29 cells
Experimental: as §1, with “HT-29” for “OVCAR-3”, “R273H” for “R248Q”, “McCOY's 5A” for “RPMI 1640”, “comprising 10%” for “comprising10%”
as §2, with “per mesh, and cultured overnight” for “per mesh, cultured overnight”, “cultured for 120 hours after” for “cultured for 72 hours after”, “Compared with a numerical value” for “Compared with the numerical value”, “in Table 2.” for “in Table 1.”

[2] = target: T1, recombinant human KIF18A enzyme (Homo sapiens, UniProt Q8NI77); assay: Inhibition of KIF18A enzyme activity (ADP-Glo); type: biochemical; settings: recombinant human KIF18A protein 100 nM, ATP 60 uM, read-out: IC50 inhibiting KIF18A enzyme activity
T1 construct: purchased Genscript
Experimental: The following method was used to determine a degree of inhibition of the compound of the present invention on the activity of recombinant human KIF18A enzyme in vitro. The method used ADP-Glo™ Kinase Assay kit (article No. V9102) of Promega Company. For detailed experimental operation, please refer to the kit instructions.
Firstly, the compound and recombinant human KIF18A protein (final concentration of 100 nM, entrusted to Genscript for expression) were added into the mesh, and incubated at room temperature for 20 minutes. Then, ATP solution (component V915A from ADP-Glo™ Kinase Assay kit, final concentration of 60 uM) was added to the reaction solution, and the mixture was incubated at room temperature for 20 minutes. Subsequently, 5 μL ADP-Glo Reagent was added to the reaction system and the obtained system was incubated at troom temperature for 50 minutes. After that, 10 μL of Kinase Detection Reagent was added to the reaction system and the obtained system was incubated at room temperature for 30 minutes. After the completion of incubation, a chemiluminescence intensity value of each mesh was measured by a microplate reader using Luminescence mode.

T1 sequence (Q8NI77 whole entry): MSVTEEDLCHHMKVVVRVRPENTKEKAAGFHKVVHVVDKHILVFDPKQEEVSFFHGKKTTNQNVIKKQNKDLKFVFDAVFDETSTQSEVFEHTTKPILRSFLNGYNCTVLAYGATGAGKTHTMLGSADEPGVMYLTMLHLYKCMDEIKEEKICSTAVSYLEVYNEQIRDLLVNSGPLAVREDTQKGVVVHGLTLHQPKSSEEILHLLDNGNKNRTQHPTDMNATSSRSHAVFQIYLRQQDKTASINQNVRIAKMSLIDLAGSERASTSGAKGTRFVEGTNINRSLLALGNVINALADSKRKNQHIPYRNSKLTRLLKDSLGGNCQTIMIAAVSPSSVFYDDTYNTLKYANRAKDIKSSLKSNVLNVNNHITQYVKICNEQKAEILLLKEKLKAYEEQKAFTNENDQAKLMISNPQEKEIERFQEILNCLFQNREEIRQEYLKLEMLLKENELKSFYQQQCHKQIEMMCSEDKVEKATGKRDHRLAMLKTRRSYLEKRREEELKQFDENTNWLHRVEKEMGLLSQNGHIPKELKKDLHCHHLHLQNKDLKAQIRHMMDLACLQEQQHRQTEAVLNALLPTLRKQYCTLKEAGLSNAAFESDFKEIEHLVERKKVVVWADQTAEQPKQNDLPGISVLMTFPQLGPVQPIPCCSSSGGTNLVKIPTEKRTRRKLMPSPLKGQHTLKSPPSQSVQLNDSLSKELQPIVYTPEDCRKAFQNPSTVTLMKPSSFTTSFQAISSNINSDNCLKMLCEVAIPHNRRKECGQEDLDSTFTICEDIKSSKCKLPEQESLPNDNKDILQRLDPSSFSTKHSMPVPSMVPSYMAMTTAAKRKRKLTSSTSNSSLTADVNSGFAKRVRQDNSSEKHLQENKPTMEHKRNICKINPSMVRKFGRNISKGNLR
T1 sequence (P68363 whole entry partner): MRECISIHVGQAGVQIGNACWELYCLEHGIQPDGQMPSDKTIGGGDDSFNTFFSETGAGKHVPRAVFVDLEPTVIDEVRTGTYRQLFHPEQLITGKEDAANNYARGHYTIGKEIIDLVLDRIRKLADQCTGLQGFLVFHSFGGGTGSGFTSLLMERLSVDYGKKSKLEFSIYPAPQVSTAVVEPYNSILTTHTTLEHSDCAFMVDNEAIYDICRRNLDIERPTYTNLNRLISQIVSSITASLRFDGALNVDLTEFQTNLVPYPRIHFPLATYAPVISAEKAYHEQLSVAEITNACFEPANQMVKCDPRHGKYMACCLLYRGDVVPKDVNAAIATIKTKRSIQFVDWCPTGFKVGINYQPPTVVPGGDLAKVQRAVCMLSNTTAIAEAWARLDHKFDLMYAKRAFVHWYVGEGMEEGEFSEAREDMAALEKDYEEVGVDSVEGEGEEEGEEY
T1 sequence (P07437 whole entry partner): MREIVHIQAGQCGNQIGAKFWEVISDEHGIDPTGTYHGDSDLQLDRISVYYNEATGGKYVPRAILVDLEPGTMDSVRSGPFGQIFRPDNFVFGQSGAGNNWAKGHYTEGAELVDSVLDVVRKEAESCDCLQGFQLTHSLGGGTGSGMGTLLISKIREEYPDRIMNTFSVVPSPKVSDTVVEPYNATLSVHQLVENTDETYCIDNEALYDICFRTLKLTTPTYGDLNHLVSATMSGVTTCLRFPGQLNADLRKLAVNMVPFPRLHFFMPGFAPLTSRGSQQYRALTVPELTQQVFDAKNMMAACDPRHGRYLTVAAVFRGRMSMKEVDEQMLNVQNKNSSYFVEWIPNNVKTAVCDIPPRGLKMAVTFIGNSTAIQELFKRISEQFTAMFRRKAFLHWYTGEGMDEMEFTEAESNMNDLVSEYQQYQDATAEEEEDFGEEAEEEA

SMILES | IC50 (OVCAR-3 cells) [nM] | IC50 (HT-29 cells) [nM] | IC50 [2] [nM] | further results
Cc1cc(NC(=O)c2ccc(NS(=O)(=O)CCO)cc2N2CCC3(CC2)CC3)nc(N2CCC(F)(F)CC2)n1 [AMG 650, reference compound] |  |  |  | Blood concentration Cmax [1]: 3050 ng/mL; Curve area AUC0-∞ [1]: 52500 ng·h/mL; Half-life period T½ [1]: 9.64 h
COc1ccc(NC(=O)c2ccc(NS(=O)(=O)CCO)cc2N2CCC3(CC2)CC3)cc1N1CCC(F)(F)CC1 [Example 6, N-(3-(4,4-difluoropiperidin-1-yl)-4-methoxyphenyl)-4-((2-hydroxyethyl)sulfonamido)-2-(6-azaspiro[2.5]octan-6-yl)benzamide] | 1.5 | 3.2 |  | 
N#Cc1ccc(NC(=O)c2ccc(NS(=O)(=O)CCO)cc2N2CCC3(CC2)CC3)cc1N1CCC(F)(F)CC1 [Example 7, N-(4-cyano-3-(4,4-difluoropiperidin-1-yl)phenyl)-4-((2-hydroxyethyl)sulfonamido)-2-(6-azaspiro[2.5]octan-6-yl)benzamide] | 1.9 | 52.4 | 177 | 
CCS(=O)(=O)Nc1ccc(C(=O)Nc2ccc(C#N)c(N3CCC(F)(F)CC3)c2)c(N2CCC3(CC2)CC3)c1 [Example 8, N-(4-cyano-3-(4,4-difluoropiperidin-1-yl)phenyl)-4-(ethylsulfonamido)-2-(6-azaspiro[2.5]octan-6-yl) benzamide] | 17.4 | 14.5 | 97.8 | 
CCS(=O)(=O)Nc1ccc(C(=O)Nc2ccc(OC)c(N3CCC(F)(F)CC3)c2)c(N2CCC3(CC2)CC3)c1 [Example 9, N-(3-(4,4-difluoropiperidin-1-yl)-4-methoxyphenyl)-4-(ethylsulfonamido)-2-(6-azaspiro[2.5]octan-6-yl) benzamide] | 1.5 | 3.3 |  | Cmax ([1]; mouse, 10 mg/kg, read-out: Blood concentration Cmax): 5270 ng/mL; AUC(0-inf) ([1]; mouse, 10 mg/kg, read-out: Curve area AUC0-∞): 52200 ng·h/mL; half-life ([1]; mouse, 10 mg/kg, read-out: Half-life period T½ (converted)): 5.9 h
CCS(=O)(=O)Nc1ccc(C(=O)Nc2ccc(OC)c(N3CCOCC3)c2)c(N2CCC3(CC2)CC3)c1 [Example 10, 4-(ethylsulfonamido)-N-(4-methoxy-3-morpholinophenyl)-2-(6-azaspiro[2.5]octan-6-yl)benzamide] | 7.5 | 42.8 |  | 
CCS(=O)(=O)Nc1ccc(C(=O)Nc2ccc(OC)c(CN3CC(F)(F)C3)c2)c(N2CCC3(CC2)CC3)c1 [Example 11, N-(3-((3,3-difluoroazetidin-1-yl)methyl)-4-methoxyphenyl)-4-(ethylsulfonamido)-2-(6-azaspiro[2.5]octan-6-yl)benzamide] | 14.7 | 3.9 | 145 | 
CCS(=O)(=O)Nc1ccc(C(=O)Nc2ccc(OC(F)(F)F)c(N3CCC(F)(F)CC3)c2)c(N2CCC3(CC2)CC3)c1 [Example 13, N-(3-(4,4-difluoropiperidin-1-yl)-4-(trifluoromethoxy)phenyl)-4-(ethylsulfonamido)-2-(6-azaspiro[2.5]octan-6-yl)benzamide] |  |  | 137 | 
CCS(=O)(=O)Nc1ccc(C(=O)Nc2ccc(OC)c(-c3ccc(F)cn3)c2)c(N2CCC3(CC2)CC3)c1 [Example 16, 4-(ethylsulfonamido)-N-(3-(5-fluoropyridine-2-yl)-4-methoxyphenyl)-2-(6-azaspiro [2.5]octan-6-yl) benzamide] | 4.5 | 27.1 | 185 | 
